Experimental data taken from patent US8399206B2, “Methods for diagnosis, prognosis and methods of treatment” (Nodality, Inc., priority 2008, dated 2013).

B1: CD40L (protein, UniProt P29965 113-261, looked up)
CD40 ligand, soluble form: MQKGDQNPQIAAHVISEASSKTTSVLQWAEKGYYTMSNNLVTLENGKQLTVKRQGLYYIYAQVTFCSNREASSQAPFIASLCLKSPGRFERILLRAANTHSSAKPCGQQSIHLGGVFELQPGASVFVNVTDPSQVSHGTGFTSFGLLKL
B2: M-CSF (protein, UniProt P09603 33-554, looked up)
Macrophage colony-stimulating …: EEVSEYCSHMIGSGHLQSLQRLIDSQMETSCQITFEFVDQEQLKDPVCYLKKAFLLVQDIMEDTMRFRDNTPNAIAIVQLQELSLRLKSCFTKDYEEHDKACVRTFYETPLQLLEKVKNVFNETKNLLDKDWNIFSKNCNNSFAECSSQDVVTKPDCNCLYPKAIPSSDPASVSPHQPLAPSMAPVAGLTWEDSEGTEGSSLLPGEQPLHTVDPGSAKQRPPRSTCQSFEPPETPVVKDSTIGGSPQPRPSVGAFNPGMEDILDSAMGTNWVPEEASGEASEIPVPQGTELSPSRPGGGSMQTEPARPSNFLSASSPLPASAKGQQPADVTGTALPRVGPVRPTGQDWNHTPQKTDHPSALLRDPPEPGSPRISSLRPQGLSNPSTLSAQPQLSRSHSSGSVLPLGELEGRRSTRDRRSPAEPEGGPASEGAARPLPRFNSVPLTDTGHERQSEGSFSPQLQESVFHLLVPSVILVLLAVGGLLFYRWRRRSHQEPQRADSPLEQPEGSPLTQDDRQVELPV
B3: IFNg: interferon gamma, cytokine modulator (protein, UniProt P01579 24-161, looked up)
Interferon gamma: QDPYVKEAENLKKYFNAGHSDVADNGTLFLGILKNWKEESDRKIMQSQIVSFYFKLFKNFKDDQSIQKSVETIKEDMNVKFFNSNKKKRDDFEKLTNYSVTDLNVQRKAIHELIQVMAELSPAAKTGKRKRSQMLFRG

What was measured:
AML BMMC leukemic blasts = experiment: SCNP modulated signaling assay, AML study No. 2 (BMMC, CR vs NR, clinical sub-groups); assay type: cell-based, human
Method: Two independent sets of cryopreserved samples were analyzed sequentially. The first set consisted of 35 peripheral blood mononuclear cell (PBMC) samples derived from AML patients. The second set consisted of 134 cryopreserved bone marrow mononuclear cell (BMMC) samples derived from AML patients. These samples were the same samples used in the previous examples. Sample inclusion criteria required collection prior to initiation of induction chemotherapy, AML classification by the French-American-British (FAB) criteria as M0 through M7 (excluding M3) and availability of clinical annotations.
In the first study, induction chemotherapy consisted of at least one cycle of standard cytarabine-based induction therapy (i.e. daunorubicin 60 mg/m^2×3 days, cytarabine 100-200 mg/m^2 continuous infusion×7 days); responses were measured after one cycle of induction therapy. In the second study, cytarabine (200 mg/m^2 to 3 g/m^2) was used in combination with an anthracycline (daunorubicin or idarubicin) or an additional anti-metabolite (e.g. fludarabine or troxacitabine), and sometimes, an experimental agent (Table 16). […] Standard clinical and laboratory criteria were used for defining complete response (CR) in both studies. […] Classified as “CRp,” these samples were included in the CR group for all primary analysis. The univariate analyses were also repeated with the CRp patients classified into the NR sample group for sensitivity analysis.
Cyropreserved samples were thawed at […], washed and centrifuged in PBS, 10% FBS and 2 mM EDTA. The cells were re-suspended, filtered to remove debris and washed in RPMI cell culture media, 1% FBS, then stained with Live/Dead Fixable Aqua Viability Dye to distinguish non-viable cells. The cells were then re-suspended in RPMI, 1% FBS, aliquoted to 100,000 cells/condition and rested for 1-2 hours at 37° C. prior to SCNP assays. Each condition included two to five phenotypic markers for cell population gating (eg, CD45, CD33), up to three intracellular stains or up to three additional surface markers or control antibodies for an eight-color flow cytometry assay.
Functional assays were performed as previously described. Cells were incubated with modulators (Table 18), at 37° C. for 3-15 minutes, fixed with 1.6% paraformaldehyde (final concentration) for 10 minutes at 37° C., pelleted and permeabilized with 100% ice-cold methanol and stored at −80° C.
Data was acquired using FACS DIVA software on both LSR II and CANTO II Flow Cytometers (BD). For all analyses, dead cells and debris were excluded by forward scatter (FSC), side scatter (SSC), and Amine Aqua Viability Dye measurement. Leukemic cells were identified as cells that lacked the characteristics of mature lymphocytes (CD45^++, CD33^−) and that fit the CD45 and CD33 versus right-angle light-scatter characteristics consistent with myeloid leukemia cells.
The median fluorescence intensity (MFI) was computed for each node from the fluorescence intensity levels for the cells in the myeloid population. The MFI values were then used to compute a variety of metrics by comparing them to baseline or background values, including the unmodulated condition, cellular autofluorescence and antibody isotype controls. The following metrics were computed: • 1. Basal MFI (“Basal”)=log2(MFIUnmodulated Stained)−log2(MFIGated Unstained (Autofluoresence)), designed to measure the basal levels of a certain protein under unmodulated conditions. • 2.

AML blasts = experiment: SCNP / phospho-flow modulated signaling assay, AML study No. 1 (PBMC at diagnosis, CR vs NR); assay type: cell-based, human; settings: Study No. 1 sensitivity analysis
From the text: The present illustrative example represents how to analyze cells in one embodiment of the present invention. There are several steps in the process, such as the stimulation step, the staining step and the flow cytometry step. The stimulation step of the phospho-flow procedure can start with vials of frozen cells and end with cells fixed and permeabilized in methanol. Then the cells can be stained with an antibody directed to a particular protein of interest and then analyzed using a flow cytometer.
Frozen cells are thawed in a 37° C. water bath and gently resuspended in the vial and transferred to the 15 mL conical tube. The 15 mL tube is centrifuged at 930 RPM (200×g) for 8 minutes at room temperature. The supernatant is aspirated and the pellet is gently resuspended in 1 mL media A. The cell suspension is filtered through a 70 um cell strainer into a new 15 mL tube. The cell strainer is rinsed with 1 mL media A and another 12 ml of media A into the 15 mL tube. The cells are mixed into an even suspension. A 20 μL aliquot is immediately removed into a 96-well plate containing 180 μL PBS+4% FBS+CD45 Alexa 700+PI to determine cell count and viability post spin. After the determination, the 15 mL tubes are centrifuged at 930 RPM (200×g) for 8 minutes at room temperature. The supernatant is aspirated and the cell pellet is gently resuspended in 4 mL PBS+4 μL Amine Aqua and incubated for 15 min in a 37° C. incubator. 10 mL RPMI+1% FBS is added to the cell suspension and the tube is inverted to mix the cells. The 15 mL tubes are centrifuged at 930 RPM (200×g) for 8 minutes at room temperature. The cells are resuspended in Media A at the desired cell concentration (1.25×10^6/mL). For samples with low numbers of cells (<18.5×10^6), the cells are resuspended in up to 15 mL media. For samples with high numbers of cells (>18.5×10^6), the volume is raised to 10 mL with media A and the desired volume is transferred to a new 15 mL tube, and the cell concentration is adjusted to 1.25×10^6 cells/ml. 1.6 mL of the above cell suspension (concentration at 1.25×10^6 cells/ml) is transferred into wells of a multi-well plate. From this plate, 80 ul is dispensed into each well of a subsequent plate. The plates are covered with a lid (Nunc) and placed in a 37° C. incubator for 2 hours to rest.
A concentration for each stimulant that is five folds more (5×) than the final concentration is prepared using Media A as diluent. 5× stimuli are arrayed into wells of a standard 96 well v-bottom plate that correspond to the wells on the plate with cells to be stimulated.
Adding the stimulant: The cell plate(s) are taken out of the incubator and placed in a 37° C. water bath next to the pipette apparatus. The cell plate is taken from the water bath and gently swirled to resuspend any settled cells. With pipettor, the stimulant is dispensed into the cell plate and vortexed at “7” for 5 seconds. The deep well plate is put back into the water bath.
Adding Fixative: 200 μl of the fixative solution (final concentration at 1.6%) is dispensed into wells and then mixed on the titer plate shaker on high for 5 seconds. The plate is covered with foil sealer and incubated in a 37° C. water bath for 10 minutes. The plate is spun for 6 minutes at 2000 rpm at room temperature. The cells are aspirated using a 96 well plate aspirator (VP Scientific). The plate is vortexed to resuspend cell pellets in the residual volume. The pellet is ensured to be dispersed before the Methanol step (see cell permeabilization) or clumping will occur.
Cell Permeabilization: Permeability agent, for example methanol, is added slowly and while the plate is vortexing. To do this, the cell plate is placed on titer plate shaker and made sure it is secure. The plate is set to shake using the highest setting. A pipetter is used to add 0.6 mls of 100% methanol to the plate wells. The plate(s) are put on ice until this step has been completed for all plates.

[1] = Study No. 2, all patients, CR samples
[2] = Study No. 2, all patients, CR samples, negative = down regulation
[3] = Study No. 2, all patients, NR samples

| Molecule | Mean Value of CRs, p-Stat5 Fold (AML BMMC leukemic blasts; [1]) | Mean Value of CRs, p-Stat3 Fold (AML BMMC leukemic blasts; [2]) | Mean Value of NRs, p-Stat3 Fold (AML BMMC leukemic blasts; [3]) | Mean Value of CRs, p-CREB Total Phospho (AML blasts; CR samples) | Mean Value of CRs, p-Stat3 Total Phospho (AML blasts; CR samples) | Mean Value of NRs, p-CREB Total Phospho (AML blasts; NR samples incl. CRp) | Mean Value of NRs, p-Stat3 Total Phospho (AML blasts; NR samples incl. CRp) | Mean Value of CRs, p-Stat1 Total Phospho (AML blasts; CR samples) | Mean Value of NRs, p-Stat1 Total Phospho (AML blasts; NR samples incl. CRp) | also measured |
| --- | --- | --- | --- | --- | --- | --- | --- | --- | --- | --- |
| IL-6: interleukin 6, cytokine modulator | 0.13 | 0.12 | 1.09 | 1.58 | 1.08 | 2.44 | 1.81 | – | – | Mean Value of CRs, p-Stat3 Total Phospho (AML BMMC leukemic blasts; [1]): 1.76; Mean Value of CRs, p-Stat1 Fold (AML BMMC leukemic blasts; [2]): −0.01; Mean Value of NRs, p-Stat1 Fold (AML BMMC leukemic blasts; [3]): 0.26; Mean Value of NRs, p-Stat3 Total Phospho (AML BMMC leukemic blasts; [3]): 2.98; Mean Value of NRs, p-Stat5 Fold (AML BMMC leukemic blasts; [3]): 0.55 |
| IL-10: interleukin 10, cytokine modulator | 0.09 | 0.08 | 0.39 | – | 0.72 | – | 1.69 | 0.17 | 0.47 | Mean Value of CRs, p-Stat5 Fold (AML BMMC leukemic blasts; Study No. 2, patients with de novo AML, CR samples): 0.06 |
| B1 | – | – | – | 1.37 | – | 2.67 | – | – | – | Mean Value of CRs, p-Erk Total Phospho (AML blasts; CR samples): 1.18; Mean Value of NRs, p-Erk Total Phospho (AML blasts; NR samples incl. CRp): 1.62 |
| B2 | – | – | – | 1.26 | – | 1.76 | – | – | – | Mean Value of CRs, p-Akt Fold (AML blasts; CR samples): −0.16; Mean Value of CRs, p-Plcγ2 Total Phospho (AML blasts; CR samples): 1.79; Mean Value of NRs, p-Akt Fold (AML blasts; NR samples incl. CRp): 0.05; Mean Value of NRs, p-Plcγ2 Total Phospho (AML blasts; NR samples incl. CRp): 2.8 |
| B3 | – | −0.02 | 0.2 | – | 0.68 | – | 1.3 | 0.67 | 1.27 | Mean Value of CRs, p-Stat1 Fold (AML blasts; CR samples): 0.45; Mean Value of CRs, p-Stat5 Total Phospho (AML blasts; CR samples): 1.62; Mean Value of NRs, p-Stat5 Total Phospho (AML blasts; NR samples incl. CRp): 2.35; Mean Value of NRs, p-Stat1 Fold (AML blasts; NR samples incl. CRp, negative = down regulation): 0.91 |
